Laboratory results reported in US20260242353A1, “HETEROARYL DERIVATIVES AS DDRs INHIBITORS” (CHIESI FARMACEUTICI S.P.A., priority 2022, published 2026).
Like-named read-outs stand apart in the source and are kept apart here.

Experiments:
DDR1 = biological target: T1, DDR1 (Homo sapiens, UniProt Q08345); assay: LanthaScreen Europium Kinase Binding assay, DDR1
T1 construct: purchased Carna Biosciences
Procedure, shortened: (§1)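 Compounds were incubated 1 h at rt with 5 nM DDR1 plus 20 nM Kinase Tracer 178, or 5 nM DDR2 plus 10 nM tracer, and 2 nM Eu anti-GST antibody in HEPES pH 7.5 buffer. Read-out was the TR-FRET 665/615 nm ratio. IC50 came from a 4-parameter fit and was converted to Ki by Cheng-Prusoff.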

DDR2 = biological target: T2, DDR2 (Homo sapiens, UniProt Q16832); assay: LanthaScreen Europium Kinase Binding assay, DDR2
T2 construct: purchased Life Technologies
T2 sequence (Q16832 22-855): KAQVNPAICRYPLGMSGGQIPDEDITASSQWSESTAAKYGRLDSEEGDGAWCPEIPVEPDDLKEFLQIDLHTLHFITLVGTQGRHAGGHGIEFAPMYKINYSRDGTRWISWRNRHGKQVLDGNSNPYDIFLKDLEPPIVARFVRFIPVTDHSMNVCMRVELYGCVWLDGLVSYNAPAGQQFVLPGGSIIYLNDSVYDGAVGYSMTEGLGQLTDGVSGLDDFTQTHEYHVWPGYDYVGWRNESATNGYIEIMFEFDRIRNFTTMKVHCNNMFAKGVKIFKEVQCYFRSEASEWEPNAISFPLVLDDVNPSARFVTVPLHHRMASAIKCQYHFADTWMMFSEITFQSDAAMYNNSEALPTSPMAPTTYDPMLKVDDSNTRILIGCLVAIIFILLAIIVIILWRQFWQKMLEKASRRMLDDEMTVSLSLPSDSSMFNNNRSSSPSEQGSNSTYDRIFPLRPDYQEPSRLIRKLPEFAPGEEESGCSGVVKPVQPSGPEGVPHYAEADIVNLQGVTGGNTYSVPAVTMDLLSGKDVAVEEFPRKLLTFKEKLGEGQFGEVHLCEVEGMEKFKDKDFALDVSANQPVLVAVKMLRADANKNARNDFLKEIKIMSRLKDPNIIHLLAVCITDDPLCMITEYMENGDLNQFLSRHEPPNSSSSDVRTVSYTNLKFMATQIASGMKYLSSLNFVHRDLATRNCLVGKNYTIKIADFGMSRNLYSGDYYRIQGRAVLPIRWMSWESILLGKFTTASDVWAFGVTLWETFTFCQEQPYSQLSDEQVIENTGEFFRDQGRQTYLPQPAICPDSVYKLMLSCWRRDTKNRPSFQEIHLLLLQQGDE
Procedure, shortened: as §1

[1] = 5 nM DDR1, 20 nM Kinase Tracer 178, 1 h at rt, Ki from IC50 by Cheng-Prusoff, read-out: Ki DDR1
[2] = 5 nM DDR2, 10 nM Kinase Tracer 178, 1 h at rt, Ki from IC50 by Cheng-Prusoff, read-out: Ki DDR2
[3] = same binding assay, 5 nM DDR1, 20 nM Kinase Tracer 178, read-out: DDR1 Ki
[4] = same binding assay, 5 nM DDR2, 10 nM Kinase Tracer 178, read-out: DDR2 Ki

T1 sequence (Q08345 19-913): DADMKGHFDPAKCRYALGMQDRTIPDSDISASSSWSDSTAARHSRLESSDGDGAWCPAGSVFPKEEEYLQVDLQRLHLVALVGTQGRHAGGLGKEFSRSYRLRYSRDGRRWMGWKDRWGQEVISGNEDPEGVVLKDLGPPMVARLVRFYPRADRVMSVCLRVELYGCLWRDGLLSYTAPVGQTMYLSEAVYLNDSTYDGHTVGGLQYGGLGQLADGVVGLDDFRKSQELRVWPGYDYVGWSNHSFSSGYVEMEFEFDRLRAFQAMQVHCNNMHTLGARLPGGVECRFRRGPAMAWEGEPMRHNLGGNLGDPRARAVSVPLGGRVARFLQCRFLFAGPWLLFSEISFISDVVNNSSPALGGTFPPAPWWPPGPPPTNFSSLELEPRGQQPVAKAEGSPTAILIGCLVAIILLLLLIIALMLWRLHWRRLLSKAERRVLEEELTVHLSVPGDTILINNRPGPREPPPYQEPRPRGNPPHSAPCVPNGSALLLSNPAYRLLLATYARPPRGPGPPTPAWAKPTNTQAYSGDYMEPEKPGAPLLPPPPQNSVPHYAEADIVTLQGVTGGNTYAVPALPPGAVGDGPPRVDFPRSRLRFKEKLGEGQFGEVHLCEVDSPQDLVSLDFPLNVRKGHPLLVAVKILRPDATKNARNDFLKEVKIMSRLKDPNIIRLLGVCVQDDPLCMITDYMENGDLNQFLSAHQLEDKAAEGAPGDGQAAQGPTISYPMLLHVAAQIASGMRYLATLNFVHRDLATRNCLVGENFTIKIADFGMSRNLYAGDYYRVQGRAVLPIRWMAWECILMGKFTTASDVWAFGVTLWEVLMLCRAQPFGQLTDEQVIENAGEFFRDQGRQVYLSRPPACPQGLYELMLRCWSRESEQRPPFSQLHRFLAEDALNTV

Row | Compound | Ki (DDR1; [1]) [nM] | Ki (DDR2; [2]) [nM] | Ki (DDR1; [3]) [nM] | Ki (DDR2; [4]) [nM]
1 | CNC(=O)c1cc2ncnc(N3CC[C@@H](c4cc(C(=O)Nc5cncc(C(F)(F)F)c5)ccc4C)C3)c2s1 [Example 108, (S)-N-methyl-4-(3-(2-methyl-5-((5-(trifluoromethyl)pyridin-3-yl)carbamoyl)phenyl)pyrrolidin-1-yl)thieno[3,2-d]pyrimidine-6-carboxamide] | < 5 | < 5 |  | 
2 | COc1ccc(C(=O)Nc2cncc(C(F)(F)F)c2)cc1C1CCN(c2cnn3cccnc23)C1 (centres unmarked) [Example 112, 4-methoxy-3-(1-(pyrazolo[1,5-a]pyrimidin-3-yl)pyrrolidin-3-yl)-N-(5-(trifluoromethyl)pyridin-3-yl)benzamide] | < 5 | 5 to 25 |  | 
3 | O=C(Nc1cncc(C(F)(F)F)c1)c1ccc(OC(F)F)c(C2CCN(c3cncnc3)C2)c1 (centres unmarked) [Example 113, 4-(difluoromethoxy)-3-(1-(pyrimidin-5-yl)pyrrolidin-3-yl)-N-(5-(trifluoromethyl)pyridin-3-yl)benzamide] | < 5 | < 5 |  | 
4 | O=C(Nc1cncc(C(F)(F)F)c1)c1ccc(C(F)F)c(C2CCN(c3cncnc3)C2)c1 (centres unmarked) [Example 120, 4-(difluoromethyl)-3-(1-(pyrimidin-5-yl)pyrrolidin-3-yl)-N-(5-(trifluoromethyl)pyridin-3-yl)benzamide] | 5 to 25 | 25 to 100 |  | 
5 | Cc1ccc(C(=O)c2cncc(C(F)(F)F)c2)cc1[C@@H]1CCN(c2cnc3ccc(CO)cn23)C1 [Example 123, (S)-(3-(1-(6-(hydroxymethyl)imidazo[1,2-a]pyridin-3-yl)pyrrolidin-3-yl)-4-methylphenyl)(5-(trifluoromethyl)pyridin-3-yl)methanone] | < 5 | < 5 |  | 
6 | Cn1nc(NC(=O)c2ccc(C(F)F)c(C3CCN(c4cncnc4)C3)c2)cc1C(C)(C)C (centres unmarked) [Example 124, N-(5-(tert-butyl)-1-methyl-1H-pyrazol-3-yl)-4-(difluoromethyl)-3-(1-(pyrimidin-5-yl)pyrrolidin-3-yl)benzamide] | < 5 | 5 to 25 |  | 
7 | Cc1ccc(C(=O)Nc2cncc(C(F)(F)F)c2)cc1[C@@H]1CCN(c2ncnc3cc(C(=O)N4CCN(C)CC4)sc23)C1 [Example 126, (S)-4-methyl-3-(1-(6-(4-methylpiperazine-1-carbonyl)thieno[3,2-d]pyrimidin-4-yl)pyrrolidin-3-yl)-N-(5-(trifluoromethyl)pyridin-3-yl)benzamide] | < 5 | 5 to 25 |  | 
8 | CNC(=O)c1cc(N2CCC(c3cc(C(=O)Nc4cncc(C(F)(F)F)c4)ccc3OC)C2)ccn1 (centres unmarked) [Example 127, 4-(3-(2-methoxy-5-((5-(trifluoromethyl)pyridin-3-yl)carbamoyl)phenyl)pyrrolidin-1-yl)-N-methylpicolinamide] | < 5 | 5 to 25 |  | 
9 | Cc1ccc(C(=O)Nc2cncc(C(F)(F)F)c2)cc1[C@@H]1CCN(c2nccn3cncc23)C1 [Example 128, (S)-3-(1-(imidazo[1,5-a]pyrazin-8-yl)pyrrolidin-3-yl)-4-methyl-N-(5-(trifluoromethyl)pyridin-3-yl)benzamide] | < 5 | 5 to 25 |  | 
10 | Cc1ccc(C(=O)Nc2cc(C(C)(C)C)n(C)n2)cc1[C@@H]1CCN(c2ncnc3ccsc23)C1 [Example 131, (S)-N-(5-(tert-butyl)-1-methyl-1H-pyrazol-3-yl)-4-methyl-3-(1-(thieno[3,2-d]pyrimidin-4-yl)pyrrolidin-3-yl)benzamide] | < 5 | < 5 |  | 
11 | Cc1ccc(C(=O)Nc2cncc(C(F)(F)F)c2)cc1N1CC(Oc2cncc(C(N)=O)c2)C1 [Example 132, 5-((1-(2-methyl-5-((5-(trifluoromethyl)pyridin-3-yl)carbamoyl)phenyl)azetidin-3-yl)oxy)nicotinamide] | < 5 | 5 to 25 |  | 
12 | CC(=O)Nc1cncc(OC2CN(c3cc(C(=O)Nc4cncc(C(F)(F)F)c4)ccc3C)C2)c1 [Example 133, 3-(3-((5-acetamidopyridin-3-yl)oxy)azetidin-1-yl)-4-methyl-N-(5-(trifluoromethyl)pyridin-3-yl)benzamide] | < 5 | < 5 |  | 
13 | Cc1ccc(C(=O)Nc2cncc(C(F)(F)F)c2)cc1[C@@H]1CCN(Cc2cnc3ccccn23)C1 [Example C1, (S)-3-(1-(imidazo[1,2-a]pyridin-3-ylmethyl)pyrrolidin-3-yl)-4-methyl-N-(5 (trifluoromethyl)pyridin-3-yl)benzamide] |  |  | 148 | 588
14 | Cc1ccc(C(=O)Nc2cncc(C(F)(F)F)c2)cc1[C@@H]1CCN(CC(N)=O)C1 [Example C2, (S)-3-(1-(2-amino-2-oxoethyl)pyrrolidin-3-yl)-4-methyl-N-(5-(trifluoromethyl)pyridin-3-yl)benzamide] |  |  | 487 | 588

Second part, the compound after the results:

Row | Ki (DDR1; [1]) [nM] | Ki (DDR2; [2]) [nM] | Ki (DDR1; [3]) [nM] | Ki (DDR2; [4]) [nM] | Compound
15 | < 5 | 5 to 25 |  |  | Cc1ccc(C(=O)Nc2cncc(C(F)(F)F)c2)cc1[C@@H]1CCN(c2cnc3[nH]nc(CN(C)C)c3c2)C1 [Example 101, (S)-3-(1-(3-((dimethylamino)methyl)-1H-pyrazolo[3,4-b]pyridin-5-yl)pyrrolidin-3-yl)-4-methyl-N-(5-(trifluoromethyl)pyridin-3-yl)benzamide]
16 | < 5 | 5 to 25 |  |  | Cc1ccc(C(=O)Nc2cncc(C(F)(F)F)c2)cc1[C@@H]1CCN(c2cnc3[nH]cc(C(=O)NC4COC4)c3c2)C1 [Example 102, (S)-5-(3-(2-methyl-5-((5-(trifluoromethyl)pyridin-3-yl)carbamoyl)phenyl)pyrrolidin-1-yl)-N-(oxetan-3-yl)-1H-pyrrolo[2,3-b]pyridine-3-carboxamide]
17 | < 5 | < 5 |  |  | Cc1ccc(C(=O)Nc2cncc(C(F)(F)F)c2)cc1[C@@H]1CCN(c2cncc(OCCO)c2)C1 [Example 103, (S)-3-(1-(5-(2-hydroxyethoxy)pyridin-3-yl)pyrrolidin-3-yl)-4-methyl-N-(5-(trifluoromethyl)pyridin-3-yl)benzamide]
18 | 5 to 25 | 5 to 25 |  |  | Cc1ccc(C(=O)Nc2cncc(C(F)(F)F)c2)cc1[C@@H]1CCN(c2ncnc3sccc23)C1 [Example 106, (S)-4-methyl-3-(1-(thieno[2,3-d]pyrimidin-4-yl)pyrrolidin-3-yl)-N-(5-(trifluoromethyl)pyridin-3-yl)benzamide]
19 | < 5 | < 5 |  |  | Cc1ccc(C(=O)Nc2cncc(C(F)(F)F)c2)cc1[C@@H]1CCN(c2ncnc3ccsc23)C1 [Example 107, (S)-4-methyl-3-(1-(thieno[3,2-d]pyrimidin-4-yl)pyrrolidin-3-yl)-N-(5-(trifluoromethyl)pyridin-3-yl)benzamide]
20 | 5 to 25 | 5 to 25 |  |  | Cc1ccc(C(=O)Nc2cncc(C(F)(F)F)c2)cc1[C@@H]1CCN(c2ncnc3cc(Br)sc23)C1 [Example 125, (S)-3-(1-(6-bromothieno[3,2-d]pyrimidin-4-yl)pyrrolidin-3-yl)-4-methyl-N-(5-(trifluoromethyl)pyridin-3-yl)benzamide]
21 | < 5 | < 5 |  |  | Cc1ccc(C(=O)Nc2cncc(C(F)(F)F)c2)cc1[C@@H]1CCN(c2ncnc3[nH]ncc23)C1 [Example 129, (S)-3-(1-(1H-pyrazolo[3,4-d]pyrimidin-4-yl)pyrrolidin-3-yl)-4-methyl-N-(5-(trifluoromethyl)pyridin-3-yl)benzamide]
22 | < 5 | 5 to 25 |  |  | CC(=O)Nc1ncc(N2CC[C@@H](c3cc(C(=O)Nc4cncc(C(F)(F)F)c4)ccc3C)C2)cn1 [Example 130, (S)-3-(1-(2-acetamidopyrimidin-5-yl)pyrrolidin-3-yl)-4-methyl-N-(5-(trifluoromethyl)pyridin-3-yl)benzamide]
